Laboratory results reported in patent US10544167B2, “Compounds as stimuli-responsive probes, methods and applications thereof” (JAWAHARLAL NEHRU CENTRE FOR ADVANCED SCIENTIFIC RESEARCH, priority 2015, dated 2020).

Assays:
[1] = system: H2O2 in HeLa cells; test: H2O2 detection after genotoxic stress (BrdU/doxorubicin) in HeLa cells, fluorescence plate reader; type: cell-based, Human; conditions: for fold increase in fluorescence compared to control cells: BrdU (100 μM), about 48 hours
Procedure: (§1) The cells are incubated with QCy-BA (5 μM) for 30 minutes in dark, washed with PBS and analysed to detect QCy-BA dye fluorescence using Infinite M1000 Pro, Tecan, Austria). Wavelengths used for excitation and emission for QCy-BA dye is 400 nm/650 nm. In all ROS measurement assays are done using plate reader and after fluorescence measurements, cells are washed, trypsinized and counted to estimate fluorescence per cell recordings.
To measure ROS generated concomitant to the dose of the DNA damage, HeLa cells are treated with increasing doses (0 to 200 μM) of 5-bromo-2′-deoxyuridine (BrdU). BrdU is a thymidine analog, which gets directly incorporated into DNA and triggers DNA damage response. From previous studies in the art it is known that 48 hours of treatment with BrdU (100 μM) or another DNA damaging agent, doxorubicin at a concentration of 0.1 μM can lead to the induction of cellular senescence.

[2] = Detection limit of H2O2 in presence of QCy-BA (concentration-dependent fluorescence, microplate reader); conditions: QCy-BA 5 μM, PBS buffer, excitation 400 nm, 3σ/slope
Procedure: Concentration dependent studies are performed using microplate reader. In the well-plates, first QCy-BA (5 μM) in buffer solution is taken, then increasing concentration of H2O2 from 0 to 100 μM is added. Upon excitation at 400 nm, the emission at […] as function time after addition of H2O2 is collected. The fluorescence intensity at […] is plotted as a function of concentration of hydrogen peroxide and each experiment is done in triplicates.
Further, concentration-dependent fluorescence study on slicing of the phenyl boronic acid functionality of QCy-BA (5 μM) in response to sequential addition of H2O2 (5 to 100 μM) is performed. The fluorescence intensity of QCy-BA at 565 nm is decreased in response to added H2O2 in the concentration range of 5 to 50 μM and subsequently reached saturation at 100 μM. A linear relationship (R^2=0.9877) is observed with increasing concentration of H2O2 in the concentration range of 5-50 JAM. Based on 3a/slope the limit of detection (LOD) of H2O2, using the decrease in fluorescence of QCy-BA at 565 nm, is found to be 5.3 μM (FIG. 7). H2O2 is one of the many ROS present in the biological system and it is necessary to test the probe QCy-BA against all of them to assess the selectivity and specificity. […]

[3] = Fluorescence response of QCy-BA to various reactive oxygen species (selectivity); conditions: QCy-BA 5 μM; superoxide, hydroxyl radical, tert-butoxy radical, hypochlorite, 100 μM each
Procedure: Further, concentration-dependent fluorescence study on slicing of the phenyl boronic acid functionality of QCy-BA (5 μM) in response to sequential addition of H2O2 (5 to 100 μM) is performed. The fluorescence intensity of QCy-BA at 565 nm is decreased in response to added H2O2 in the concentration range of 5 to 50 μM and subsequently reached saturation at 100 μM. A linear relationship (R^2=0.9877) is observed with increasing concentration of H2O2 in the concentration range of 5-50 JAM. Based on 3a/slope the limit of detection (LOD) of H2O2, using the decrease in fluorescence of QCy-BA at 565 nm, is found to be 5.3 μM (FIG. 7). H2O2 is one of the many ROS present in the biological system and it is necessary to test the probe QCy-BA against all of them to assess the selectivity and specificity. Therefore, the response of QCy-BA towards H2O2 (100 μM) in the presence of other ROS (100 μM) is examined, including tertbutyl hydroperoxide (TBHP), superoxide (O2^−), hydroxyl radical (HO.), tert-butoxy radical (^tBuO.) and hypochlorite (OCl^−).

[4] = Time-dependent fluorescence study of release kinetics of QCy-BA to QCy-DT in response to H2O2 in presence of Drew-AT; conditions: QCy-BA 2 μM, Drew-AT 2 μM
Procedure: The time-dependent fluorescence study is carried out to evaluate the release kinetics of QCy-BA (2 μM) to QCy-DT in response to H2O2 (100 μM) stimulus, in presence of Drew-AT duplex. The change in fluorescence intensities at […] and 650 nm corresponding to emission maxima (Emax) of QCy-BA and QCy-DT in presence of Drew-AT is monitored.
The calculation of kinetics parameter using pseudo-first-order conditions for conversion of QCy-BA (2 μM) to QCy-DT in the presence of H2O2 (1 mM) and Drew-AT (2 μM) gave the rate constant of kobs=1.0×10^−3 s^−1 (FIG. 10).

[5] = system: HeLa cells; test: Cytotoxicity on HeLa cells (MTT assay); type: cell-based, Human
Procedure: MTT [(3-(4,5-dimethylthiozol-2yl)-2,5-diphenyltetrazolium bromide] assay is carried out with probe QCy-BA on HeLa cells to determine the cytotoxicity effect. In a tissue cultured 96-well plate, 10,000 cells per well are plated and incubated for 24 h, for cells to attach. After completion of 24 h incubation, the attached and healthy cells are treated with various concentrations (25 μM, 12.5 μM, 6.25 μM, 3.125 μM and 0 μM) of probe QCy-BA and further incubated for 24 h. All the treatments are carried out in triplicates. The required concentrations of QCy-BA are made from stock solution in 0.2% DMEM. Stock solution of probe QCy-BA (1 mg/mL) is made in water. Four hours before stipulated time of experiment, MTT-solution (5 mg/mL of 20 μL) is added in each well and incubated to form formazan crystals. The culture medium is completely removed by 1 mL pipette and 200 μL of DMSO is added to dissolve formazan crystals. The purple colored formazan is estimated by determining absorbance at 590 nm with the help of spectrophotometer (Bio-RAD model 1680, Microplate reader). The results are shown in bar graphs (concentration of QCy-BA vs % cell viability).
In order to check the cytotoxicity of probe QCy-BA cell viability assay is performed in HeLa cells. Upon incubation with QCy-BA, more than 80% of the cells are viable even at 25 μM concentration after about 24 hours (FIG. 15).

[6] = system: H2O2 in HeLa cells; test: Confocal fluorescence imaging of HeLa cells treated with exogenous H2O2; type: cell-based, Human; conditions: QCy-BA 5 μM 30 minutes, then H2O2 100 μM about 15 minutes
Procedure: An Immunofluorescence studies are carried out on HeLa cells to validate exogenous and endogenous detection of H2O2 by QCy-BA. The HeLa cells (10,000 cells) are grown on cover slips. These cells are treated with 5 μM concentration of QCy-BA for 30 minutes. The cells are washed with DPBS for several times to remove the excesses of QCy-BA. The cells are treated with H2O2 (100 μM) for 30 minutes. These samples are subjected to confocal microscopy for immunefluorescence images.
Remarkable selectivity of QCy-BA towards H2O2 and its detection through DNA-assisted switch-on NIR fluorescence led to evaluation of the uptake and application of the probe to detect H2O2 in cells. For this purpose, confocal fluorescence imaging of HeLa cells treated with H2O2 (exogenous) is carried out. First, the HeLa cells are incubated with QCy-BA (5 μM) for about 30 minutes and imaged under a confocal microscope. […] HeLa cells containing QCy-BA are then treated with H2O2 (100 μM) for about 15 minutes, after which the cells are again scanned under a confocal microscope.

[7] = Time-dependent NMR analysis of H2O2 triggered slicing of phenyl boronic acid of QCy-BA; conditions: QCy-BA 2 mM in D2O, H2O2 10 mM, 1H NMR
Procedure: In a preliminary study, time-dependent NMR spectroscopy analysis of QCy-BA is carried out in the presence of H2O2 to assess the stimuli-responsive slicing of phenyl boronic acid functionality (FIG. 1(a)).
The chemical shifts of O—CH2, aromatic region of QCy-BA and appearance of possible new peaks for p-quinonemethide (sliced byproduct corresponding to phenyl boronic acid functionality) upon sequential addition of H2O2 is monitored. […] The peaks at 5.20 ppm and aromatic region 6.5-7.0 ppm correspond to the newly-formed exocyclic C—Hb protons of p-quinone-methide and QCy-DT moieties, respectively. After about 2 hours, a single peak at 5.20 ppm and prominent new peaks at 6.5-7.0 ppm are observed, indicating the complete conversion of QCy-BA to QCy-DT and p-quinonemethide (FIG. 1(b)). This study confirmed the H2O2 stimulus-triggered slicing of phenyl boronic acid functionality of QCy-BA to release QCy-DT, a DNA minor groove binding probe. It is observed that the color of the solution changes from yellow to brown after the addition of H2O2 to QCy-BA, a naked eye detection of the formation of p-quinone-methide and QCy-DT (FIG. 1(c)).

[8] = system: H2O2 in MRC5 cells; test: H2O2 detection after genotoxic stress (BrdU/doxorubicin) in primary MRC5 cells, fluorescence plate reader; type: cell-based, human; conditions: MRC5, various doses of BrdU and doxorubicin 0.1 μM, 72 h; probe 5 μM
Procedure: as §1
Further, similar experiments are performed in primary MRC5 cells, which are human lung primary fibroblasts. To induce DNA damage, MRC5 cells are similarly treated with various doses of BrdU and doxorubicin (0.1 μM) for 72 h. […] Therefore, above results reveal that QCy-BA is a versatile probe to monitor the elevated levels of H2O2 in both primary and cancer cells in senescence state.

[9] = system: H2O2 in HeLa cells; test: Exogenous and endogenous detection of H2O2 in HeLa cells by flow cytometry (FACS); type: cell-based, Human; conditions: probe about 5 μM, about 30 minutes, absence of NAC
Procedure: In each well, […] cells are plated in 12-well tissue culture plates and incubated for 24 hours. These cells are serum deprived for 1 h. In addition, the serum deprived cells of 6-well are treated with N-acetyl-L-cysteine (NAC) (8 mM) solution and incubated for 1 hour and cells are treated with probe QCy-BA (5 μM) and incubated for 30 minutes. After 30 minutes incubation, the cells are washed with DPBS (Dulbecco's Phosphate buffer saline) to remove the excesses of QCy-BA. These cells are harvested after trypsinization. Exogenously, H2O2 (100 μM) is added to QCy-BA and NAC+QCy-BA treated cells and incubated for 15 min. These samples are subjected to FACS analysis.
NMR, photophysical study. […] Next. QCy-BA for probing cellular (physiologically generated) H2O2 levels in live cells is employed. HeLa cells are incubated with QCy-BA (about 5 μM) for about 30 minutes in the absence and presence of N-acetyl-L-cysteine (NAC), a well-known H2O2 scavenger. […] Thus, probe QCy-BA is also capable of detecting the cellular H2O2 levels in live cells.

[10] = system: H2O2 produced by EGF/Nox pathway in HeLa cells; test: EGF produced H2O2 detection in HeLa cells by flow cytometry (FACS); type: cell-based, Human; conditions: EGF 500 ng/mL about 40 minutes, QCy-BA 5 μM 30 minutes
Procedure: To determine the EGF produced ROS in cells by QCy-BA. In a 12-well plate, […] HeLa cells are plated in each well and incubated for 24 hour. These cells are serum deprived for 1 h. Cells are incubated with EGF (500 ng/mL) for 40 minutes and further treated with NAC (8 mM) for 1 hour. Then cells are treated with QCy-BA (5 μM) for 30 minutes. After 30 minutes incubation of cells with QCy-BA, cells are washed with DPBS (Dulbecco's Phosphate Buffer Saline) to remove the excesses of QCy-BA. These cells are harvested after trypsinization. The samples are subjected to FACS.
Further, the study is extended to visualize the in situ H2O2 generation by a known signaling pathway in live cells. Well-known epidermal growth factor (EGF) binding to epidermal growth factor receptor (EGFR) signaling pathway is selected, which stimulates the production of H2O2 in cells by activating the NOX/PI3K pathways. In this experiment, live HeLa cells are incubated with the epidermal growth factor (EGF) (500 ng/mL) for about 40 minutes under physiological conditions (37° C., pH=7.4).

| Structure (SMILES) | fold change of fluorescence (summary for DCFDA) ([1]; BrdU 100 μM and doxorubicin 0.1 μM, 48 h) | fold increase in fluorescence compared to control cells [1] | limit of detection (LOD) of H2O2, using the decrease in fluorescence of QCy-BA at 565 nm [2] | effect of other ROS on the probe response (fluorescence at 565 nm) [3] | time to saturation of emission intensity at 650 nm ([4]; H2O2 100 μM, excitation 564 nm) | rate constant kobs for conversion of QCy-BA to QCy-DT ([4]; pseudo-first-order, H2O2 1 mM, emission 650 nm) | viable cells ([5]; 25 μM, about 24 hours) | toxicity (in words) ([5]; standard working concentration about 5 μM, 24 hours) | fluorescence in HeLa cells after H2O2 [6] | time to complete conversion of QCy-BA to QCy-DT and p-quinonemethide [7] | fluorescence compared to control cells [8] | mean fluorescence intensity of PerCP compared to control cells [9] | fluorescence intensity in the PerCP region after EGF stimulation [10] |
| --- | --- | --- | --- | --- | --- | --- | --- | --- | --- | --- | --- | --- | --- |
| CC(=O)Oc1cc2c(cc1Cl)C(c1ccccc1C(=O)O)c1cc(Cl)c(OC(C)=O)cc1O2 [DCFDA, 2′,7′-dichlorofluorescin diacetate] | 3-4 fold | 3 fold | – | – | – | – | – | – | – | – | – | – | – |
| C[n+]1c(/C=C/c2ccc(OCc3ccc(B(O)O)cc3)c(/C=C/c3sc4ccccc4[n+]3C)c2)sc2ccccc21.[I-].[I-] [QCy-BA, 4-((N, N-dimethyl, 2,4-bis((E)-2-(benzo[d]thiazol-2-ylinium)vinyl)phenoxy)methyl)phenylboronic acid] | – | ~10 fold | 5.3 µM | very minimal or no effect | ≥ 4 h | 0.001 s⁻¹ | more than 80% | non-toxicity | strong fluorescence in the red channel with maximum localization in the cell nucleus | about 2 hours | increase in fluorescence compared to control cells in a dose-dependent manner | increase in mean fluorescence intensity of PerCP | strong fluorescence intensity |
